Measured values as given in patent publication US8044082B2, “N-phenylacetamide inhibitors of the enzyme SOAT-1 and pharmaceutical/cosmetic compositions comprised thereof” (Galderma Research & Development, priority 2007, dated 2011).
Each block holds one compound with its values, some of them ahead of it.

How the values were obtained:
enzyme ACAT-1 = target: T1, enzyme ACAT-1 (Homo sapiens, UniProt P35610); experiment: ACAT-1 (SOAT-1) inhibition test in HepG2 cells with NBD-cholesterol fluorescence; format: cell-based; settings: NBD-cholesterol 1 μg/ml, incubation 6 h at 37° C., fluorescence excitation 490 nm / emission 540 nm
T1 sequence (P35610 1-550): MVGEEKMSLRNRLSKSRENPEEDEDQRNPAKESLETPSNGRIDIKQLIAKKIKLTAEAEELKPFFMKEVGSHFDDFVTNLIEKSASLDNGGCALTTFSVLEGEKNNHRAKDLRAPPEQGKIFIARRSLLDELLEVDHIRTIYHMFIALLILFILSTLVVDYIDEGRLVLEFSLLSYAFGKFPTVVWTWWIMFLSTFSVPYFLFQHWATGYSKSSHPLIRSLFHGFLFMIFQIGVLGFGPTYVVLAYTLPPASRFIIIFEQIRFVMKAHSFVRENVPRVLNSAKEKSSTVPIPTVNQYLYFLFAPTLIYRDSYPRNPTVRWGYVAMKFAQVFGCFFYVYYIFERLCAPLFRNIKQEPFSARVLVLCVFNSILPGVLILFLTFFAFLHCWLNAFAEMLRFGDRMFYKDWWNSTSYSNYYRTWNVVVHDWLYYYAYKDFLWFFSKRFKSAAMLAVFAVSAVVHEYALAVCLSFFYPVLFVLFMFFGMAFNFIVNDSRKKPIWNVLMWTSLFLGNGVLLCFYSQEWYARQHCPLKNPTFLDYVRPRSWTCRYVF
Experimental: The compounds (I) according to the invention, as well as their pharmaceutically acceptable salts, solvates and/or hydrates, have inhibitory properties on the enzyme SOAT-1. This inhibitory activity on the enzyme SOAT-1 is measured according to a primary enzymatic test HepG2, as described in Example 64.
The compounds of formula (I) according to the invention have been subjected to a test allowing their inhibitory action with respect to the enzyme ACAT-1 to be evaluated inspired by the following publication: “Identification of ACAT1- and ACAT2-specific inhibitors using a novel, cell-based fluorescence assay: individual ACAT uniqueness”, J. Lipid Res. (2004) vol. 45, pages 378-386.
The principle of this test is based on the employment of NBD-cholesterol, an analogue of cholesterol whose fluorescence depends on its environment. When this is present in a polar environment, it is weakly fluorescent although in a nonpolar environment it is strongly fluorescent. Free NBD-cholesterol locates itself in the cell membranes and is weakly fluorescent in this polar environment. When the NBD-cholesterol is esterified by ACAT, the ester of NBD-cholesterol locates itself in the nonpolar lipid droplets and is in that case strongly fluorescent.
The method below is applied: The HepG2 cells are incubated in the presence of NBD-cholesterol (1 μg/ml) and of the compound of formula (I) to be tested in black 96-well plates with a transparent base at a rate of 30 000 cells per well. After incubation for 6 h at 37° C., under 5% CO2, the medium is eliminated by turning over and the cells are washed with 2 times 100 μl of PBS. After addition of 50 μl of lysis buffer (NaPO4 10 mM, Igepal 1%), the plates are stirred for 5 min and read in fluorescence (excitation 490 nm, emission 540 nm) on a FUSION apparatus (Perkin-Elmer).

SMILES: Cc1ccc(N2C(=O)N(CC(=O)Nc3c(C)cccc3Cl)C(=O)C23CCCCC3)cc1 [compound (I.46), N-(2-Chloro-6-methylphenyl)-2-(2,4-dioxo-1-p-tolyl-1,3-diazaspiro[4.5]dec-3-yl)acetamide]
IC50 (enzyme ACAT-1): 5.1 nM
melting point: 244 °C

SMILES: CCc1cccc(CC)c1NC(=O)CN1C(=O)N(c2ccc(Cl)cc2)C2(CCCC2)C1=O [compound (I.61), 2-[1-(4-Chlorophenyl)-2,4-dioxo-1,3-diazaspiro[4.4]non-3-yl]-N-(2,6-diethylphenyl)acetamide]
IC50 (enzyme ACAT-1): 2.7 nM
melting point: 218 °C

SMILES: CC(C)c1cccc(C(C)C)c1NC(=O)CN1C(=O)N(C2CCCCC2)C2(CCCCC2)C1=O [compound (I.14), 2-[1-Cyclohexyl-2,4-dioxo-1,3-diazaspiro[4.5]dec-3-yl)-N-(2,6-diisopropyl-phenyl)acetamide]
IC50 (enzyme ACAT-1): 4.8 nM
melting point: 236 °C

SMILES: CCC1(CC)C(=O)N(CC(=O)Nc2c(C(C)C)cccc2C(C)C)C(=O)N1c1ccc(C)cc1 [compound (I.39), 2-(4,4-Diethyl-2,5-dioxo-3-p-tolylimidazolidin-1-yl)-N-(2,6-diisopropylphenyl)acetamide]
IC50 (enzyme ACAT-1): 0.7 nM
melting point: 174 °C

SMILES: CCCCN1C(=O)N(CC(=O)Nc2c(C(C)C)cccc2C(C)C)C(=O)C12CCCCC2 [compound (I.26), 2-(1-Butyl-2,4-dioxo-1,3-diazaspiro[4.5]dec-3-yl)-N-(2,6-diisopropylphenyl)acetamide]
IC50 (enzyme ACAT-1): 2.5 nM
melting point: 241 °C

SMILES: Cc1ccc(N2C(=O)N(CC(=O)Nc3c(C)cc(C)cc3Br)C(=O)C23CCCCC3)cc1 [compound (I.52), N-(2-Bromo-4,6-dimethylphenyl)-2-(2,4-dioxo-1-p-tolyl-1,3-diazaspiro[4.5]dec-3-yl)acetamide]
IC50 (enzyme ACAT-1): 5.3 nM
melting point: 245 °C

SMILES: CCc1cccc(CC)c1NC(=O)CN1C(=O)N(Cc2ccccc2)C2(CCCCC2)C1=O [compound (I.63), 2-(1-Benzyl-2,4-dioxo-1,3-diazaspiro[4.5]dec-3-yl)-N-(2,6-diethylphenyl)-acetamide]
melting point: 179 °C

Continued, values first:

IC50 (enzyme ACAT-1): 3.2 nM
SMILES: CC(C)c1cccc(C(C)C)c1NC(=O)CN1C(=O)N(c2ccccc2)C2(CCCC2)C1=O [compound (I.1), N-(2,6-Diisopropylphenyl)-2-(2,4-dioxo-1-phenyl-1,3-diazaspiro[4.4]non-3-yl)acetamide]

IC50 (enzyme ACAT-1): 5.6 nM
melting point: 225 °C
SMILES: CC(C)c1cccc(C(C)C)c1NC(=O)CN1C(=O)N(CCc2ccccc2)C2(CCCCC2)C1=O [compound (I.23), N-(2,6-Diisopropylphenyl)-2-(2,4-dioxo-1-phenethyl-1,3-diazaspiro[4.5]dec-3-yl)acetamide]

IC50 (enzyme ACAT-1): 0.8 nM
melting point: 258 °C
SMILES: CC(C)c1cccc(C(C)C)c1NC(=O)CN1C(=O)N(c2ccc(F)cc2)C2(CCCCC2)C1=O [compound (I.7), N-(2,6-Diisopropylphenyl)-2-[1-(4-fluorophenyl)-2,4-dioxo-1,3-diazaspiro-[4.5]dec-3-yl]acetamide]

IC50 (enzyme ACAT-1): 0.2 nM
melting point: 234 °C
SMILES: Cc1ccc(N2C(=O)N(CC(=O)Nc3c(C(C)C)cccc3C(C)C)C(=O)C23CCCCC3)cc1 [compound (I.10), N-(2,6-Diisopropylphenyl)-2-(2,4-dioxo-1-p-tolyl-1,3-diazaspiro[4.5]dec-3-yl)acetamide]

melting point: 198 °C
SMILES: COc1cccc(N2C(=O)N(CC(=O)Nc3c(C(C)C)cccc3C(C)C)C(=O)C23CCCCC3)c1 [compound (I.18), N-(2,6-Diisopropylphenyl)-2-[1-(3-methoxyphenyl)-2,4-dioxo-1,3-diazaspiro[4.5]dec-3-yl]acetamide]
